The experiment concerns PBMCs. In words: LPS-induced IL-8 release in PBMC cells. It counts as cell-based. The settings on record: Homo sapiens, LPS-stimulated PBMCs, read-out: IC50 Values for Inhibition of Cytokine Release PBMCs IL-8. The method, then:
Peripheral blood mononuclear cells (PBMCs) from healthy subjects are separated from whole blood using a density gradient (Lymphoprep, Axis-Shield Healthcare). The PBMCs are seeded in 96 well plates and treated with compounds at the desired concentration for 2 hours before addition of 1 ng/mL LPS (Escherichia Coli 0111:B4 from Sigma Aldrich) for 24 hours under normal tissue culture conditions (37° C., 5% CO2). The supernatant is harvested for determination of IL-8 and TNFα concentrations by sandwich ELISA (Duo-set, R&D systems) and read on the fluorescence microplate reader (Varioskan® Flash, ThermoFisher Scientific).

pIC50: −log10 of the molar value.

As usually defined, the pIC50 is the IC50 on a negative log10 scale, so that one unit is a factor of ten. As for `COCCOCCNC(=O)c1ccc(Nc2ncc3cc(-c4cc(C(=O)Nc5cc(C(C)(C)C)cc(NS(C)(=O)=O)c5OC)ccc4C)ccc3n2)cc1OC` [14(w), 4-((6-(5-((5-(tert-Butyl)-2-methoxy-3-(methylsulfonamido)phenyl)carbamoyl)-2-methylphenyl)quinazolin-2-yl)amino)-2-methoxy-N-(2-(2-methoxyethoxy)ethyl)benzamide], the pIC50 was 8.08. In the case of `COc1cc(Nc2ncc3cc(-c4cc(C(=O)Nc5cc(C(C)(C)C)cc(NS(C)(=O)=O)c5OC)ccc4C)ccc3n2)ccc1C(=O)NC1CCS(=O)(=O)CC1` [14(an), 4-((6-(5-((5-(tert-Butyl)-2-methoxy-3-(methylsulfonamido)phenyl)carbamoyl)-2-methylphenyl)quinazolin-2-yl)amino)-N-(1,1-dioxidotetrahydro-2H-thiopyran-4-yl)-2-methoxybenzamide], the pIC50 is 7.91.

As for `COc1cc(Nc2ncc3cc(-c4cc(C(=O)Nc5cc(C(C)(C)C)cc(NS(C)(=O)=O)c5OC)ccc4C)ccc3n2)ccc1C(=O)NCCN1CCC(O)CC1` [14(ah), 4-((6-(5-((5-(tert-Butyl)-2-methoxy-3-(methylsulfonamido)phenyl)carbamoyl)-2-methylphenyl)quinazolin-2-yl)amino)-N-(2-(4-hydroxypiperidin-1-yl)ethyl)-2-methoxybenzamide], the pIC50 was 8.10. The result for `COc1c(NC(=O)c2ccc(C)c(-c3ccc4nc(Nc5cccc(N=S(C)(C)=O)c5)ncc4c3)c2)cc(C(C)(C)C)cc1NS(C)(=O)=O` [14(q), N-(5-(tert-Butyl)-2-methoxy-3-(methylsulfonamido)phenyl)-3-(2-((3-((dimethyl(oxo)-I6-sulfanylidene)amino)phenyl)amino)quinazolin-6-yl)-4-methylbenzamide] reads 8.21.

On to `COc1cc(Nc2ncc3cc(-c4cc(C(=O)Nc5cc(C(C)(C)C)cc(NS(C)(=O)=O)c5OC)ccc4C)ccc3n2)cc(S(=O)(=O)N(C)CCN2CCOCC2)c1` [14(c), N-(5-(tert-Butyl)-2-methoxy-3-(methylsulfonamido)phenyl)-3-(2-((3-methoxy-5-(N-methyl-N-(2-morpholinoethyl)sulfamoyl)phenyl)amino)quinazolin-6-yl)-4-methylbenzamide], for which the negative-log IC50 (pIC50) was 7.73. As for `COc1cc(Nc2ncc3cc(-c4cc(C(=O)Nc5cc(C(C)(C)C)cc(NS(C)(=O)=O)c5OC)ccc4C)ccc3n2)ccc1C(=O)NCCS(C)(=O)=O` [14(ad), 4-((6-(5-((5-(tert-Butyl)-2-methoxy-3-(methylsulfonamido)phenyl)carbamoyl)-2-methylphenyl)quinazolin-2-yl)amino)-2-methoxy-N-(2-(methylsulfonyl)ethyl)benzamide], the pIC50 is 8.15. The result for `COc1cc(Nc2ncc3cc(-c4cc(C(=O)Nc5cc(C(C)(C)C)cc(NS(C)(=O)=O)c5OC)ccc4C)ccc3n2)ccc1C(=O)NC1CCN(C)CC1` [14(ac), 4-((6-(5-((5-(tert-Butyl)-2-methoxy-3-(methylsulfonamido)phenyl)carbamoyl)-2-methylphenyl)quinazolin-2-yl)amino)-2-methoxy-N-(1-methylpiperidin-4-yl)benzamide] reads 8.29; that for `COc1cc(Nc2ncc3cc(-c4cc(C(=O)Nc5cc(C(C)(C)C)cc(NS(C)(=O)=O)c5OC)ccc4C)ccc3n2)ccc1C(=O)NCCC1(O)CCN(C)CC1` [14(aj), 4-((6-(5-((5-(tert-Butyl)-2-methoxy-3-(methylsulfonamido)phenyl)carbamoyl)-2-methylphenyl)quinazolin-2-yl)amino)-N-(2-(4-hydroxy-1-methylpiperidin-4-yl)ethyl)-2-methoxybenzamide], 8.03; that for `C#Cc1cc(Nc2ncc3cc(-c4cc(C(=O)Nc5cc(C(C)(C)C)cc(NS(C)(=O)=O)c5OC)ccc4C)ccc3n2)cc(C(=O)NCCOC)c1` [14(n), N-(5-(tert-Butyl)-2-methoxy-3-(methylsulfonamido)phenyl)-3-(2-((3-ethynyl-5-((2-methoxyethyl)carbamoyl)phenyl)amino)quinazolin-6-yl)-4-methylbenzamide], 7.96.

The values are drawn from patent US20170209445A1, “KINASE INHIBITORS” (Respivert Limited, priority 2014, published 2017).
